Laboratory results: ChEMBL document CHEMBL5034001 (J Med Chem, 2021)
The source made the active and inactive calls. No cut-off for these calls is given here.

Columns and labels:
[1] = molecular target: Tyrosine-protein kinase receptor UFO (Homo sapiens) (UniProt P30530); test: Binding affinity to wild-type human partial length AXL (R497 to Y821 residues) expressed in bacterial expression system assessed as residual binding level at 100 nM by Kinomescan method relative to control
[2] = system: Receptor-type tyrosine-protein kinase FLT3 (Homo sapiens), P36888 [UNDEFINED MUTATION]; test: Binding affinity to human partial length FLT3 ITD/D835V double mutant expressed in bacterial expression system assessed as residual binding level at 100 nM by Kinomescan method relative to control
[3] = system: SR; test: Antiproliferative activity against human SR cells assessed as inhibition of cell growth at 10 nM preincubated for 5 days followed by compound washout and measured on day 7 and 9 by CCK8 assay; format: functional, cell-based; conditions: time 5.0 day
[4] = molecular target: Tyrosine-protein kinase Fer (Homo sapiens) (UniProt P16591); test: Binding affinity to wild-type human partial length FER (S542 to T822 residues) expressed in bacterial expression system assessed as residual binding level at 100 nM by Kinomescan method relative to control
[5] = Metabolic stability in human liver microsomes assessed as half life preincubated for 10 mins followed by NADPH regenerating system addition and measured after 10 mins by LC-MS/MS analysis; format: ADME, Microsome
[6] = molecular target: Focal adhesion kinase 1 (Homo sapiens) (UniProt Q05397); test: Induction of FAK degradation in human MDA-MB-231 cells at 10 nM treated for 16 hrs followed by compound washout and measured after 48 hrs by Western blot analysis; format: cell-based
[7] = system: MDA-MB-231; test: Induction of G1 cell cycle arrest in human MDA-MB-231 cells at 100 nM after 24 to 48 hrs; format: functional, cell-based; conditions: time 24-48 hrs
[8] = system: Receptor-type tyrosine-protein kinase FLT3 (Homo sapiens), P36888 [UNDEFINED MUTATION]; test: Binding affinity to human partial length FLT3 ITD/F691L double mutant expressed in bacterial expression system assessed as residual binding level at 100 nM by Kinomescan method relative to control
[9] = system: Receptor-type tyrosine-protein kinase FLT3 (Homo sapiens), P36888 [K663Q]; test: Binding affinity to human partial length FLT3 K663Q mutant (V592 to Y969 residues) expressed in bacterial expression system assessed as residual binding level at 100 nM by Kinomescan method relative to control
[10] = system: MDA-MB-231; test: Inhibition of cell migration in human MDA-MB-231 cells assessed as wound confluence ratio at 10 nM after 48 hrs by wound healing assay; format: functional
[11] = molecular target: Signal transducer and activator of transcription 3 (Homo sapiens) (UniProt P40763); test: Inhibition of STAT3 downstream signalling in human NCI-H2228 cells assessed as reduction in pSTAT3 level at 1 to 1000 nM by Western blot analysis; format: cell-based; conditions: dose 1-1000 nM
[12] = molecular target: T1, ALK tyrosine kinase receptor (Homo sapiens, UniProt Q9UM73); test: Induction of ALK degradation in human SR cells at 10 uM after 16 hrs by Western blot analysis; format: cell-based
[13] = molecular target: Protein-tyrosine kinase 2-beta (Homo sapiens) (UniProt Q14289); test: Binding affinity to wild-type human full length PYK2 (M1 to E967 residues) expressed in bacterial expression system assessed as residual binding level at 100 nM by Kinomescan method relative to control
[14] = system: Calu-1; test: Down regulation of FAK in human Calu-1 cells at 1 to 1000 nM after 16 hrs by Western blot analysis; format: functional, cell-based; conditions: dose 1-1000 nM
[15] = molecular target: Serine/threonine-protein kinase RIO1 (Homo sapiens) (UniProt Q9BRS2); test: Binding affinity to wild-type human full length RIOK1 (M1 to K568 residues) expressed in bacterial expression system assessed as residual binding level at 100 nM by Kinomescan method relative to control
[16] = molecular target: T1, ALK tyrosine kinase receptor; test: Induction of ALK degradation in human SR cells at 100 nM after 8 to 24 hrs by Western blot analysis; format: cell-based; conditions: time 8-24 hrs
[17] = molecular target: NPM/ALK (Nucleophosmin/ALK tyrosine kinase receptor) (Homo sapiens) (UniProt Q9UM73+P06748); test: Induction of NPM-ALK degradation in human SR cells at 0.1 to 50 nM by Western blot analysis; format: cell-based; conditions: dose 0.1-50 nM
[18] = molecular target: Protein-tyrosine kinase 2-beta (Homo sapiens) (UniProt Q14289); test: Induction of PYK2 degradation in human MDA-MB-231 cells at 10 nM treated for 16 hrs followed by compound washout and measured after 48 hrs by Western blot analysis; format: cell-based
[19] = system: ALK tyrosine kinase receptor (Homo sapiens), Q9UM73 [L1196M]; test: Binding affinity to wild-type human partial length ALK L1196M mutant (I1088 to E1409 residues) expressed in mammalian expression system assessed as residual binding level at 100 nM by Kinomescan method relative to control
[20] = molecular target: Serine/threonine-protein kinase Chk2 (Homo sapiens) (UniProt O96017); test: Binding affinity to wild-type human partial length CHEK2 (S253 to E574 residues) expressed in bacterial expression system assessed as residual binding level at 100 nM by Kinomescan method relative to control
[21] = system: Calu-1; test: Down regulation of cyclin D1 protein expression in human Calu-1 cells at 1 to 500 nM after 48 hrs by Western blot analysis; format: functional, cell-based; conditions: dose 1-500 nM
[22] = system: MDA-MB-231; test: Induction of apoptosis in human MDA-MB-231 cells at 100 nM after 72 hrs; format: functional, cell-based
[23] = molecular target: Dual specificity protein kinase CLK1 (Homo sapiens) (UniProt P49759); test: Binding affinity to wild-type human full length CLK1 (M1 to I484 residues) expressed in bacterial expression system assessed as residual binding level at 100 nM by Kinomescan method relative to control
[24] = Metabolic stability in Sprague-Dawley rat liver microsomes preincubated for 10 mins followed by NADPH regenerating system addition and measured after 10 mins by LC-MS/MS analysis; format: ADME, Microsome; conditions: time 20 min, read-out: Stability
[25] = system: Receptor-type tyrosine-protein kinase FLT3 (Homo sapiens), P36888 [D835Y]; test: Binding affinity to human partial length FLT3 D835Y mutant (Q580 to Y969 residues) expressed in bacterial expression system assessed as residual binding level at 100 nM by Kinomescan method relative to control
[26] = system: Calu-1; test: Down regulation of C-myc protein expression in human Calu-1 cells at 1 to 500 nM after 48 hrs by Western blot analysis; format: functional, cell-based; conditions: dose 1-500 nM
[27] = molecular target: EML4-ALK (Homo sapiens) (UniProt Q9UM73+Q9HC35); test: Induction of EML4-ALK degradation in human […] at 0.1 to 50 nM by Western blot analysis; format: cell-based; conditions: dose 0.1-50 nM
[28] = system: Calu-1; test: Induction of G1 cell cycle arrest in human Calu-1 cells at 100 nM after 24 to 48 hrs; format: functional, cell-based; conditions: time 24-48 hrs
[29] = system: Calu-1; test: Inhibition of cell migration in human Calu-1 cells at 100 nM after 12 to 24 hrs by wound healing assay; format: functional, cell-based; conditions: time lower […], time upper 24.0 hrs
[30] = system: SR; test: Induction of G1 cell cycle arrest in human SR cells at 100 nM after 24 to 48 hrs; format: functional, cell-based; conditions: time 24-48 hrs
[31] = Oral bioavailability in […] at 10 mg/kg measured upto 24 hrs; format: ADME, organism-based; conditions: in vivo

T1 sequence (Q9UM73 19-1620 limits assumed): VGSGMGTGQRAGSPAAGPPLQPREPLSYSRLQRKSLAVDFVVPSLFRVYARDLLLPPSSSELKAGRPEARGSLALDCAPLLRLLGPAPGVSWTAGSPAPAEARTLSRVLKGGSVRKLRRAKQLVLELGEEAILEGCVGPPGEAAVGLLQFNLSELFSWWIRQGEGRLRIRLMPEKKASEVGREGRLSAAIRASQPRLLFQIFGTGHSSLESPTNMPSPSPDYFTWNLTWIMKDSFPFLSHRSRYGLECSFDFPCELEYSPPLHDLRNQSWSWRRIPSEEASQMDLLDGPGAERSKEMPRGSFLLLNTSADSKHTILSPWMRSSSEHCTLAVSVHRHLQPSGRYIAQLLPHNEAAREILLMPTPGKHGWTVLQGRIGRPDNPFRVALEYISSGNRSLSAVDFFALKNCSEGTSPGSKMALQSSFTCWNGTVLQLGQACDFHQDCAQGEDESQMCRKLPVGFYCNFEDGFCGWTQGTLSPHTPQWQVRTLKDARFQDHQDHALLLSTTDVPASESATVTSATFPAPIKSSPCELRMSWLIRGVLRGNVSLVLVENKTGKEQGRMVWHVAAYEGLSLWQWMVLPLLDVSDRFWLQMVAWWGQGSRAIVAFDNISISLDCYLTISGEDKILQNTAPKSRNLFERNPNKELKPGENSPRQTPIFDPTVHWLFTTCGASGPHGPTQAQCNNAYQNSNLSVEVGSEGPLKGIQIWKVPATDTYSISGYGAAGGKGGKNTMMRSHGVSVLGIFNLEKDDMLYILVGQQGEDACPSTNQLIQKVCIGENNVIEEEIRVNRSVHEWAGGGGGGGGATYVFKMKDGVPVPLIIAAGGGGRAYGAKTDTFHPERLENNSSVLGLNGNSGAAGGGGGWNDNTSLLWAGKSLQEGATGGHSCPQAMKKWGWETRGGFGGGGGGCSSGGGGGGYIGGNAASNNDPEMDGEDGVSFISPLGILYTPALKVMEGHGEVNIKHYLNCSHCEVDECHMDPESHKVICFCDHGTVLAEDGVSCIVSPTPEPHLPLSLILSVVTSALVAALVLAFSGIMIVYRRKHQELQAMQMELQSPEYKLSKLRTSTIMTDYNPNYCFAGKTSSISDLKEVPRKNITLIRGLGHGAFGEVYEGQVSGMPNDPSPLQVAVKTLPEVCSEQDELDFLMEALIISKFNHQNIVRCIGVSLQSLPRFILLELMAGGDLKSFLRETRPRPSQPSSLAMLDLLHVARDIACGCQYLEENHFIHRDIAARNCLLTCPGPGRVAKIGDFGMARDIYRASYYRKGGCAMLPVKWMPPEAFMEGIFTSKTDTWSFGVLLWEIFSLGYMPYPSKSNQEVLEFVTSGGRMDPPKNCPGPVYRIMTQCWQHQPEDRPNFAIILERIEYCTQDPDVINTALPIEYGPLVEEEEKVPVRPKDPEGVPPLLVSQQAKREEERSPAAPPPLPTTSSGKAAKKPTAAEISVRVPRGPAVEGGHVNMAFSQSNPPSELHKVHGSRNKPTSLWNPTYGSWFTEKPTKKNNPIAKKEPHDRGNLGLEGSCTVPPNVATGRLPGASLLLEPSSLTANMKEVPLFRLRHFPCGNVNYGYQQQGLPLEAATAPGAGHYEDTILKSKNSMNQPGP
Chain of Protein-tyrosine kinase 2-beta (Homo sapiens) (Q14289 whole entry, looked up, the tested form may be a part): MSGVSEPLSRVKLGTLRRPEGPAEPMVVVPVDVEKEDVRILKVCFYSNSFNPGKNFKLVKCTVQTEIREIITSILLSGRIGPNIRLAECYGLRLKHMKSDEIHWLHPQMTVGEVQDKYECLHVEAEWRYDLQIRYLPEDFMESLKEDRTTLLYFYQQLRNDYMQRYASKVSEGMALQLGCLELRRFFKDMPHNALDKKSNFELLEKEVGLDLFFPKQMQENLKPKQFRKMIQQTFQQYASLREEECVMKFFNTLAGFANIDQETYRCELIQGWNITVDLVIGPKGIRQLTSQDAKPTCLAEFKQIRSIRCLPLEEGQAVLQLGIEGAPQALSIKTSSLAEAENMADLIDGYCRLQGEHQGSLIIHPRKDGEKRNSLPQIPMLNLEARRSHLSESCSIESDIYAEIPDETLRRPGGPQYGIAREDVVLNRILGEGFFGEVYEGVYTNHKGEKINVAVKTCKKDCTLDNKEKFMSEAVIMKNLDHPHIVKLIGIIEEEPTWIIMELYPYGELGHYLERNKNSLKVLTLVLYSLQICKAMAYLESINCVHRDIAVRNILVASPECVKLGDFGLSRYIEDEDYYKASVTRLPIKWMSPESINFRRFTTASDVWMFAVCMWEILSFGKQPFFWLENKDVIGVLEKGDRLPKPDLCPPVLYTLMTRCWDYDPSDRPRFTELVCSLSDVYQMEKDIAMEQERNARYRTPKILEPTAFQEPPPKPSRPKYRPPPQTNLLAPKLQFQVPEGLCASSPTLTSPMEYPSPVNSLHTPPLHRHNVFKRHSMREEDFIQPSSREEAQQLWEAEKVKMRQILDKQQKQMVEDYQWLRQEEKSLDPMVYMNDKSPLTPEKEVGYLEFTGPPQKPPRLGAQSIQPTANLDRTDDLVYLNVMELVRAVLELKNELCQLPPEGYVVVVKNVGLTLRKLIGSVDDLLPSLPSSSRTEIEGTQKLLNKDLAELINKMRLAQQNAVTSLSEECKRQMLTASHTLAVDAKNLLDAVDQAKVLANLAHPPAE
Chain of Serine/threonine-protein kinase RIO1 (Homo sapiens) (Q9BRS2 whole entry, the tested form may be a part): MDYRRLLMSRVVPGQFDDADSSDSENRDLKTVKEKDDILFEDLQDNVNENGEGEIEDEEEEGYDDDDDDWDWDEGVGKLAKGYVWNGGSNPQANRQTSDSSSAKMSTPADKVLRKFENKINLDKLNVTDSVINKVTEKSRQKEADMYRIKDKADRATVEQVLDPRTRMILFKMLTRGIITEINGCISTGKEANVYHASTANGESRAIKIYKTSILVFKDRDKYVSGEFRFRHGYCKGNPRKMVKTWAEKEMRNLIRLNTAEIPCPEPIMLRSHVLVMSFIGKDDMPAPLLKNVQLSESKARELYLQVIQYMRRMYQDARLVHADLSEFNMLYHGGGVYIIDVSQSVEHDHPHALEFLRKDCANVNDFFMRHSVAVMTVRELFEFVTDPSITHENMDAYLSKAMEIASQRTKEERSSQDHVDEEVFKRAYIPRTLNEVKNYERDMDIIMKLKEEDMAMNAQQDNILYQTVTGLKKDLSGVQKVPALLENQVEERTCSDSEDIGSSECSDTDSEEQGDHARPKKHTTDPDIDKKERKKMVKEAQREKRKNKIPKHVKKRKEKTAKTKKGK
Chain of Focal adhesion kinase 1 (Homo sapiens) (Q05397 2-1052 limits assumed): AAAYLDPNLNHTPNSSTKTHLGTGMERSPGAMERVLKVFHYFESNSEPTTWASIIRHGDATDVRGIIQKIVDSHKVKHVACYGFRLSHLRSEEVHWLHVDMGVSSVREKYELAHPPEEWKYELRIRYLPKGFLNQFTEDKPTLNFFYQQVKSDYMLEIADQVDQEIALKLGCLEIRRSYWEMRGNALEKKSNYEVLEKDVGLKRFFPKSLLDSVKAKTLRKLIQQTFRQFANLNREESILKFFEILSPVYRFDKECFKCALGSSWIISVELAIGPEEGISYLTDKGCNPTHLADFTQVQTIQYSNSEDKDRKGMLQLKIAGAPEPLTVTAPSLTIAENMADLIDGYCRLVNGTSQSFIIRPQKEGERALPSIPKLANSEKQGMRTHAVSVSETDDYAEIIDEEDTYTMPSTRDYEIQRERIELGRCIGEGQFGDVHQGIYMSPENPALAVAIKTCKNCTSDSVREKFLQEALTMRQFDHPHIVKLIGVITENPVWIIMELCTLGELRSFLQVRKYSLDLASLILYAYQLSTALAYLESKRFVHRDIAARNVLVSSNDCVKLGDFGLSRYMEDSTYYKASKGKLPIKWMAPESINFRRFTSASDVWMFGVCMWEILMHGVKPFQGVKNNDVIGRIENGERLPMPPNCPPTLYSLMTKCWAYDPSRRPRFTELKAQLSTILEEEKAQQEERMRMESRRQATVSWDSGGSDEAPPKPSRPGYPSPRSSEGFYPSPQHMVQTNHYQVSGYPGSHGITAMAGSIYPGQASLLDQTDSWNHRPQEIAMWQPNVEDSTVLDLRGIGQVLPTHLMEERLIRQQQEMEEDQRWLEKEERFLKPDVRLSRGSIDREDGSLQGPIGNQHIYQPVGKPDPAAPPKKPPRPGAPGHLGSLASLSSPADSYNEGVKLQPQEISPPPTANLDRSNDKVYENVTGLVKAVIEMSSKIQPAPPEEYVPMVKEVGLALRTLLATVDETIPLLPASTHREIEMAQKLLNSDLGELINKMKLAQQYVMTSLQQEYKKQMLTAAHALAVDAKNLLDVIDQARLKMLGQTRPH
Chain of Dual specificity protein kinase CLK1 (Homo sapiens) (P49759 whole entry, looked up, the tested form may be a part): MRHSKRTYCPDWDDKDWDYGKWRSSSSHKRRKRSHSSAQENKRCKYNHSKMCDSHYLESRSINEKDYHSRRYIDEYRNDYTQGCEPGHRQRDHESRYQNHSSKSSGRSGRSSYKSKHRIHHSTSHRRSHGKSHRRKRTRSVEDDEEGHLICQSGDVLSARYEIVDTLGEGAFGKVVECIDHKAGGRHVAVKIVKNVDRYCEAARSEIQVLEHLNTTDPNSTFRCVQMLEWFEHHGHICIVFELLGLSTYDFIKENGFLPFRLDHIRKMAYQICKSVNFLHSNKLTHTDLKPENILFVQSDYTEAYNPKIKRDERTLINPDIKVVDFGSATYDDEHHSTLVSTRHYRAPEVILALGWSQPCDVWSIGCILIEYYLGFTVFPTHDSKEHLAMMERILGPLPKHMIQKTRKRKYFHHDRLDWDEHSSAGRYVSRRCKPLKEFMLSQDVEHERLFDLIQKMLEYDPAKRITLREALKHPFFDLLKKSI
Chain of NPM/ALK (Nucleophosmin/ALK tyrosine kinase receptor) (Homo sapiens) (P06748 whole entry partner): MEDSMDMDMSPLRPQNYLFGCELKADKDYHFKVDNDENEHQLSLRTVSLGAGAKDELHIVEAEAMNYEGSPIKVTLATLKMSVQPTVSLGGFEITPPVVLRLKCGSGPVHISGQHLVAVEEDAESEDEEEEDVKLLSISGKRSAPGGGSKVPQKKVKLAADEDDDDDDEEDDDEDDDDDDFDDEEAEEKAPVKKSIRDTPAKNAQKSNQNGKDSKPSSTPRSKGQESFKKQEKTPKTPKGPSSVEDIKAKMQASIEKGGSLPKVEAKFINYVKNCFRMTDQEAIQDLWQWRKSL
Chain of NPM/ALK (Nucleophosmin/ALK tyrosine kinase receptor) (Homo sapiens) (Q9UM73 19-1620 limits assumed): as the sequence (Q9UM73 19-1620 limits assumed) above

In the case of `COc1cc(N2CCC(N3CCN(C(=O)CNc4cccc5c4C(=O)N(C4CCC(=O)NC4=O)C5=O)CC3)CC2)ccc1Nc1ncc(Cl)c(Nc2ccccc2P(C)(C)=O)n1` (stereo unspecified), the Activity [1] is reported as 9.5%, the Activity [2] is reported as 1% and the Activity [3] is reported as “Active”. For the same compound, the Activity [4] was 4.1%, the half-life [5] was 4.65 h and the Activity [6] was “inactive”. For the same compound, the Activity [7] was “Active”, the Activity [8] was 0% and the Activity [9] was 4.3%. For the same compound, the inhibition at 0.01 µM [10] was 48%, the inhibition [11] was “inactive” and the Activity [12] was “Active”. For the same compound, the Activity [13] was 3.5%, the Activity [14] was “Active” and the Activity [15] was 1.6%. For the same compound, the Activity [16] was “Active”, the Activity [17] was “Active” and the Activity [18] was “inactive”. The Activity [19] was 6.5%, the Activity [20] was 0% and the Activity [21] was “Active”. For the same compound, the Activity [22] was “inactive”, the Activity [23] was 3.8% and the microsomal CLint [24] was < 9.6 µL/min/mg. For the same compound, the Activity [25] was 8.2%, the Activity [26] was “Active” and the Activity [27] was “Active”. The Activity [28] was “Active”, the inhibition [29] was “Active” and the Activity [30] was “Active”. The bioavailability [31] was 18.4%.
